Data reported in ChEMBL document CHEMBL3994619, “Inhibition of invasion by N-trans-feruloyloctopamine via AKT, p38MAPK and EMT related signals in hepatocellular carcinoma cells” (Bioorg Med Chem Lett, 2017).
Activity calls are given as the source filed them. The calls are words filed in the database; no cut-off is given here.

Legend:
[1] = test system: Huh-7; assay: Antiproliferative activity against human HuH7 cells assessed as reduction in cell viability after 48 hrs by CCK8 assay; assay type: functional, cell-based; conditions: Huh-7, 48 h
[2] = test system: HCCLM3; assay: Antiproliferative activity against human HCCLM3 cells assessed as reduction in cell viability after 48 hrs by CCK8 assay; assay type: functional, cell-based; conditions: HCCLM3, 48 h
[3] = test system: HCCLM3; assay: Antimigratory activity in human HCCLM3 cells assessed as wound closure at 2 mM after 48 hrs by inverted microscopic method; assay type: functional, cell-based
[4] = test system: Huh-7; assay: Antimigratory activity in human HuH7 cells assessed as wound closure at 2 mM after 48 hrs by inverted microscopic method; assay type: functional, cell-based
[5] = test system: Huh-7; assay: Anti-invasive activity in human HuH7 cells assessed as invasive cell count at 2 mM after 48 hrs using Giemsa dye by matrigel based microscopic method (reference value: 36 +/- 6); assay type: functional
[6] = test system: HCCLM3; assay: Anti-invasive activity in human HCCLM3 cells assessed as invasive cell count at 2 mM after 48 hrs using Giemsa dye by matrigel based microscopic method (reference value: 64.7 +/- 9.3); assay type: functional
[7] = target: Transcription factor p65 (Homo sapiens) (UniProt Q04206); assay: Effect on p65 phosphorylation in human HCCLM3 cells at 2 mM after 48 hrs by western blot analysis; assay type: cell-based
Transcription factor p65 (Homo sapiens), sequence (Q04206 whole entry): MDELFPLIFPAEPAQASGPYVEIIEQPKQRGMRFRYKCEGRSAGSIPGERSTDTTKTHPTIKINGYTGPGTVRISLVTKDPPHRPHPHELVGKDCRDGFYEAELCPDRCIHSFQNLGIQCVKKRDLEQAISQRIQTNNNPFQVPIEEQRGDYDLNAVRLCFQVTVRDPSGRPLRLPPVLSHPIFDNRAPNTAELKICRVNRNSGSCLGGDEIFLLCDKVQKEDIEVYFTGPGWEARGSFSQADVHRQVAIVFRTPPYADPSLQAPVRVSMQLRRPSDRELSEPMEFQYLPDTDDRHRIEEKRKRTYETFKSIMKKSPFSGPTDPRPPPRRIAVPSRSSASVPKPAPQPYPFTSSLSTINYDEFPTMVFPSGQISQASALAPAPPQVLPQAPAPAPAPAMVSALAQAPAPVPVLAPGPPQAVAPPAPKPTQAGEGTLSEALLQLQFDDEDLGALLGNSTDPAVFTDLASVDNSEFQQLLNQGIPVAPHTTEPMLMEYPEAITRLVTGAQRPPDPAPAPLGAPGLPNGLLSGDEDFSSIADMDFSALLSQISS

[8] = target: Mitogen-activated protein kinase; ERK1/ERK2 (Homo sapiens) (UniProt P27361+P28482); assay: Effect on ERK1/2 phosphorylation in human HCCLM3 cells at 2 mM after 48 hrs by western blot analysis; assay type: cell-based
Mitogen-activated protein kinase; ERK1/ERK2 (Homo sapiens), sequence (P27361 whole entry, looked up): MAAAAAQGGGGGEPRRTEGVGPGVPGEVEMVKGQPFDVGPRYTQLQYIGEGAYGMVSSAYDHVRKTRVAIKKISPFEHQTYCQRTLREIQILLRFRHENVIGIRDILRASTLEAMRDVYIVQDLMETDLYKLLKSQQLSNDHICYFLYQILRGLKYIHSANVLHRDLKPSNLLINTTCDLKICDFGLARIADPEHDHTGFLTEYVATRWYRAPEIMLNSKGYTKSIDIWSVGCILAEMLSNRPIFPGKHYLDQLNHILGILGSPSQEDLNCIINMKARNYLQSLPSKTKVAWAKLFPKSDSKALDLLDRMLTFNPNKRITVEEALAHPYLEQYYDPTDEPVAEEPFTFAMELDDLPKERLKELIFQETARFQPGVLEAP
Mitogen-activated protein kinase; ERK1/ERK2 (Homo sapiens), sequence (P28482 whole entry, looked up): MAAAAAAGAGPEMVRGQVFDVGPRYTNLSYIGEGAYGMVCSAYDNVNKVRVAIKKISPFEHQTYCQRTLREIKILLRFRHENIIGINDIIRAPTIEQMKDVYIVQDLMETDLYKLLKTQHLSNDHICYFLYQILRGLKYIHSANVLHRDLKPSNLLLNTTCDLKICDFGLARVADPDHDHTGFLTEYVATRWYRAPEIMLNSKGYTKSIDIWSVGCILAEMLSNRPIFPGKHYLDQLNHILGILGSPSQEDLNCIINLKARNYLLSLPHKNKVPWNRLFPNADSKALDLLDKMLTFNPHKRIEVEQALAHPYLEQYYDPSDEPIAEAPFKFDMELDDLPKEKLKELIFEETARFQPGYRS

[9] = organism: Homo sapiens; assay: Reduction in Akt phosphorylation in human HuH7 cells at 2 mM after 48 hrs by western blot analysis; assay type: cell-based
[10] = organism: Homo sapiens; assay: Reduction in Akt phosphorylation in human HCCLM3 cells at 2 mM after 48 hrs by western blot analysis; assay type: cell-based
[11] = target: T1, MAP kinase p38 (Homo sapiens) (UniProt O15264+Q15759+Q16539+P53778); assay: Reduction in p38 phosphorylation in human HuH7 cells at 2 mM after 48 hrs by western blot analysis; assay type: cell-based
[12] = target: T1, MAP kinase p38 (Homo sapiens); assay: Reduction in p38 phosphorylation in human HCCLM3 cells at 2 mM after 48 hrs by western blot analysis; assay type: cell-based
[13] = test system: HCCLM3; assay: Upregulation of E-cadherin in human HCCLM3 cells after 48 hrs by western blot analysis; assay type: functional, cell-based
[14] = test system: HCCLM3; assay: Downregulation of slug in human HCCLM3 cells at 2 mM after 48 hrs by western blot analysis; assay type: functional, cell-based
[15] = test system: HCCLM3; assay: Cytotoxicity against human HCCLM3 cells after 48 hrs by CCK8 assay; assay type: cell-based; conditions: hcclm3, 48 h

Row | Structure (SMILES) | IC50 [1] [mM] | IC50 [2] [mM] | Activity [3] | Activity [4] | Activity [5] | Activity [6] | Activity [7] | Activity [8] | Activity [9] | Activity [10] | Activity [11] | Activity [12] | Activity [13] | Activity [14] | Activity [15]
1 | COc1cc(/C=C/C(=O)NCC(O)c2ccc(O)cc2)ccc1O (configuration not stated) | 1.99 | 2.27 | inactive | inactive | 11.7 | 23.3 | inactive | inactive | Active | Active | Active | Active | Active | Active | Non-Toxic
2 | O=c1[nH]cc(F)c(=O)[nH]1 [FLUOROURACIL] | 2.98 | 1.84 | – | – | – | – | – | – | – | – | – | – | – | – | –
